In patent US8404650B2, “Methods of treating cancer with doxazolidine and prodrugs thereof” (priority 2005, dated 2013):
Like-named read-outs stand apart in the source and are kept apart here.

Experiments:
MCF-7 = test: Growth inhibition of MCF-7 sensitive breast cancer cells (colony formation, crystal violet); type: cell-based, human
Procedure: (§1) In vitro Activity. […] This cell suspension was dispensed in 200 μL aliquots (1000 cells/well) into the inside wells of 96-well tissue culture plates. Outside wells contained 200 μL of media. […] The medium was replaced with 90 μL of growth medium prior to addition of the drug. Doxaz was dissolved in DMSO at concentrations ranging from 50 μM to 1 mM. […] Serial dilutions (1:3 and 1:10) were made in sterile DMSO to yield seven solutions of decreasing drug concentration at 100× the respective working concentrations. […] Additionally, two lanes were treated with 10 μL of growth medium containing 10% sterile DMSO and one lane was treated with 90 μL of 1.5 M Tris HCl. […]
(§2) Cell growth inhibition experiments initially focused on MCF-7, MCF-7/Adr, SK-HEP-1, and Hep G2 cancer cells as well as rat cardiomyocytes as a measure of cardiotoxicity and Vero cells (green monkey kidney cells) as an additional measure of normal cell toxicity.
(§3) Activity of plasmin-activated prodrugs.
(§4) A more thorough characterization of the growth inhibition of a variety of cancer cells as well as rat cardiomyocytes by Formula IV (aFK-PABC-Doxaz) was evaluated in comparison with inhibition of growth by Doxaz, Dox and aFK-PABC-Dox. Cells were treated with drug for 3 h and colony growth was measured at 3 to 5 days when cells reached about 80% confluence. […] The breast cancer cell lines represent the multi-drug resistant (MDR) phenotype with MCF-7/Adr cells and a cell line that is transfected with the gene for urokinase plasminogen activator (uPA), the primary enzyme responsible for cleavage of plasminogen to plasmin. Rat cardiomyocytes served as a model for comparison of drug cardiotoxicity.

MCF-7/Adr = test: Growth inhibition of multidrug resistant MCF-7/Adr breast cancer cells (crystal violet); type: cell-based; conditions: for Growth inhibition IC50, MCF-7/Adr, 24 h: 24 h drug treatment
Procedure: as §1, §2, §3, §4

DU-145 = test: Growth inhibition of DU-145 prostate cancer cells; type: cell-based; conditions: for Cell growth inhibition IC50, DU-145: 24 h drug treatment, crystal violet
Procedure: as §1
(§5) SHP-77 small cell lung cancer cells were also of interest because they express modest amounts of both enzymes. Inhibition of the growth of cardiomyocytes was used as a measure of cardiotoxicity, and inhibition of the growth of Vero cells, green monkey kidney cells, was again used as another measure of toxicity to normal cells.
as §4, with “Cells were treated with drug for 3 h and colony growth was measured at 3 to 5 days when cells reached about 80% confluence.” left out

SK-HEP-1 = test: Growth inhibition of SK-HEP-1 liver cancer cells; type: cell-based, human; conditions: crystal violet; for Growth inhibition IC50, SK-HEP-1, 24 h: 24 h drug treatment
Source text: (§6) Cell growth inhibition experiments initially focused on MCF-7, MCF-7/Adr, SK-HEP-1, and Hep G2 cancer cells as well as rat cardiomyocytes as a measure of cardiotoxicity and Vero cells (green monkey kidney cells) as an additional measure of normal cell toxicity. […]

Hep G2 = test: Growth inhibition of Hep G2 liver cancer cells; type: cell-based, human; conditions: crystal violet; for Growth inhibition IC50, Hep G2, 24 h: 24 h drug treatment
Source text: as §6

[1] = tested on: H9c2(2-1) rat cardiomyocytes; test: Growth inhibition of rat cardiomyocytes as a measure of cardiotoxicity; type: cell-based; conditions: for Growth inhibition IC50, H9c2(2-1), 24 h: 24 h drug treatment, crystal violet
Procedure: Biological activity of simple Doxazolidine carbamates. Since the prodrug carbamates were designed to be activated by carboxylesterases CES1 (hCE1) and/or CES2 (hiCE), cell lines of interest were measured for expression of the respective mRNAs using reverse transcription (RT) followed by PCR (polymerase chain reaction). Cancer cell lines investigated included SHP-77 resistant small cell lung, DU-145 prostate, MCF-7 sensitive breast, MCF-7/Adr resistant breast, SK-HEP-1 liver, and Hep G2 liver cells. As a measure of possible cardiotoxicity, H9c2(2-1) rat cardiomyocytes were also investigated. Cardiotoxicity is relevant because the ultimate product of metabolism and subsequent hydrolysis of these carbamates is doxorubicin, which is cardiotoxic. […] Additionally, the rat cardiomyocytes, H9c2(2-1), also express more CES2 than CES1.
Cell growth inhibition experiments initially focused on MCF-7, MCF-7/Adr, SK-HEP-1, and Hep G2 cancer cells as well as rat cardiomyocytes as a measure of cardiotoxicity and Vero cells (green monkey kidney cells) as an additional measure of normal cell toxicity. The butyl and pentyl carbamates inhibited the growth of MCF-7, MCF-7/Adr, and SK-HEP-1 cell lines with a 24 h drug treatment period with some selectivity for cancer cells over cardiomyocytes relative to growth inhibition by Dox as shown in Table 2. […] The relative inactivity of the ethyl carbamate may indicate that a substantial lipophilic interaction is required at the active site of the carboxylesterases to hold the Doxaz substrate.
Biological activity of Doxazolidine carbamates with self-eliminating spacer. […] SHP-77 small cell lung cancer cells were also of interest because they express modest amounts of both enzymes. Inhibition of the growth of cardiomyocytes was used as a measure of cardiotoxicity, and inhibition of the growth of Vero cells, green monkey kidney cells, was again used as another measure of toxicity to normal cells. They also show more activity against the cancer cells that express higher levels of CES1. Of particular note is the higher activity against Hep G2 cells than against SK-HEP-1 cells. […] The low toxicity of pentyl PABC-Doxaz to cardiomyocytes relative to the toxicity of Dox is encouraging and consistent with the low level of expression of CES1 in cardiomyocytes.
A more thorough characterization of the growth inhibition of a variety of cancer cells as well as rat cardiomyocytes by Formula IV (aFK-PABC-Doxaz) was evaluated in comparison with inhibition of growth by Doxaz, Dox and aFK-PABC-Dox. Cells were treated with drug for 3 h and colony growth was measured at 3 to 5 days when cells reached about 80% confluence. The cancer cells included one prostate cancer cell line (DU-145), three related breast cancer cell lines (MCF-7, MCF-7/Adr, and MCF-7 uPA), and one pancreatic cancer cell line (Mia PaCa-2). The breast cancer cell lines represent the multi-drug resistant (MDR) phenotype with MCF-7/Adr cells and a cell line that is transfected with the gene for urokinase plasminogen activator (uPA), the primary enzyme responsible for cleavage of plasminogen to plasmin. Rat cardiomyocytes served as a model for comparison of drug cardiotoxicity. Growth inhibition was also measured with added plasmin. aFK-PABC-Doxaz inhibited the growth of most of the cancer cells 0.5 log or more better than did aFK-PABA-Dox. Although not as dramatic, this differential response paralleled the differential response between Doxaz and Dox which is approximately two logs except for the MDR expressing, MCF-7/Adr cells which show more than three logs differential response. […] Addition of 0.01 unit/mL of plasmin has no effect on the activity of Dox but increases the activity of both aFK-PABC-Doxaz and aFK-PABC-Dox, in some cases by more than a log. Addition of 0.01 unit/mL plasminogen increases the activity of aFK-PABC-Doxaz on average by 0.3 log. […]

Vero cells = test: Growth inhibition of Vero cells as a measure of normal cell toxicity (MTT); type: cell-based, green monkey; conditions: 24 h drug treatment
Source text: as §2, §5

SHP-77 = test: Growth inhibition of SHP-77 small cell lung cancer cells; type: cell-based; conditions: 24 h drug treatment; crystal violet
Source text: as §5

MDA-MB-435 = test: Growth inhibition of MDA-MB-435 breast cancer cells; type: cell-based; conditions: 3 h drug treatment, growth at 5 days; read-out: IC50 MDA-MB-435
Procedure: (§7) In vitro Activity. […] This cell suspension was dispensed in 200 μL aliquots (1000 cells/well) into the inside wells of 96-well tissue culture plates. Outside wells contained 200 μL of media. […] The medium was replaced with 90 μL of growth medium prior to addition of the drug. Doxaz was dissolved in DMSO at concentrations ranging from 50 μM to 1 mM. […] Serial dilutions (1:3 and 1:10) were made in sterile DMSO to yield seven solutions of decreasing drug concentration at 100× the respective working concentrations. […] Additionally, two lanes were treated with 10 μL of growth medium containing 10% sterile DMSO and one lane was treated with 90 μL of 1.5 M Tris HCl. The cells were incubated at 37° C. for 3 h, at which time the drug solutions were replaced with 200 μL of fresh growth medium.
as §3

cancer cells [2] = conditions: background statement; cited from earlier work
cancer cells [3] = test: Cancer cell growth inhibition, statements over several or unnamed cell lines; type: cell-based; conditions: read-out: Cancer cell growth inhibition IC50 in the presence of plasmin
Procedure: as §7, §4

human plasmin = human plasmin (Homo sapiens, UniProt P00747); test: Plasmin activation of prodrug and release of Doxaz (HPLC); type: biochemical; conditions: 37° C.
Sequence of human plasmin (P00747 581-810 limits assumed): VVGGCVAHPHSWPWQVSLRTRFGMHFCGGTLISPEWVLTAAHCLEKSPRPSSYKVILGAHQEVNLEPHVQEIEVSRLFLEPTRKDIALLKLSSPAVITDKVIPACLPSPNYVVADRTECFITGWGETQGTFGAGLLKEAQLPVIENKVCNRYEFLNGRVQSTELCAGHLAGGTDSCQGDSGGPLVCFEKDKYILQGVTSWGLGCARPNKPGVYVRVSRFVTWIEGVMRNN
Sequence of human plasmin (P00747 97-580 partner limits assumed): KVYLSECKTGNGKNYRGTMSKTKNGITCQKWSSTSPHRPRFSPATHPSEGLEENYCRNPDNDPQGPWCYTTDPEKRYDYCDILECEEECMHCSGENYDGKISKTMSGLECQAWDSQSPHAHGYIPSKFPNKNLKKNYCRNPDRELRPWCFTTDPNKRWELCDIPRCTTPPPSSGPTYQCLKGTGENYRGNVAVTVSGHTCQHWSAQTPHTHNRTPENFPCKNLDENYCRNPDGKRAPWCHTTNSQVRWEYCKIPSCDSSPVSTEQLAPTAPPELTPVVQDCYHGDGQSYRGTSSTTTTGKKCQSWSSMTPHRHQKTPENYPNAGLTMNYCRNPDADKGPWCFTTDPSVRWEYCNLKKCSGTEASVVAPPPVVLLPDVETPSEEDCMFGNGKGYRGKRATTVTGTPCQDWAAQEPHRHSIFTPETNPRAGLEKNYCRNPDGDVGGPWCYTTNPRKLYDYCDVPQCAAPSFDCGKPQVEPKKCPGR
Procedure: Both Formulas IV and V were incubated with 15 μg/ml human plasmin and monitored by HPLC at 37° C. Just 4 min after the addition of plasmin, 20 percent of compound 10 was converted to Doxaz and roughly 50% of that Doxaz had hydrolyzed to Doxorubicin. Within 23 minutes, nearly all of the prodrug was converted to Doxaz and subsequently hydrolyzed to Doxorubicin.

Water solubility = type: physicochemical; conditions: as di-cation
[4] = 24 h drug treatment, crystal violet
[5] = 3 h drug treatment, crystal violet
[6] = Homo sapiens, NCI/ADR-RES, read-out: IC50 MCF-7/Adr

| Structure (SMILES) | Growth inhibition IC50, MCF-7, 24 h (MCF-7; [4]) | Growth inhibition IC50, MCF-7/Adr, 24 h (MCF-7/Adr; crystal violet) | Cell growth inhibition IC50, DU-145 (DU-145) | Growth inhibition IC50, SK-HEP-1, 24 h (SK-HEP-1) | Growth inhibition IC50, Hep G2, 24 h (Hep G2) | Growth inhibition IC50, H9c2(2-1), 24 h [1] | Growth inhibition IC50, Vero, 24 h (Vero cells) | Cell growth inhibition IC50, SHP-77 (SHP-77) | IC50 (MCF-7/Adr; [6]) [nM] | further results |
| --- | --- | --- | --- | --- | --- | --- | --- | --- | --- | --- |
| CCCCOC(=O)N1COC2C(C)OC(OC3CC(O)(C(=O)CO)Cc4c(O)c5c(c(O)c43)C(=O)c3c(OC)cccc3C5=O)CC21 (stereo not shown) [Doxaz Butyl Carbamate] | −6.1 ± 0.04 log of the molar concentration | −6.2 ± 0.3 log of the molar concentration | −6.4 ± 0.02 log of molar concentrations | −6.4 ± 0.2 log of the molar concentration | −6.7 ± 0.3 log of the molar concentration | −5.8 ± 0.2 log of the molar concentration | −6.3 ± 0.1 log of the molar concentration | −6.6 ± 0.3 log of molar concentrations | – | – |
| CCCCOC(=O)Nc1ccc(COC(=O)N2COC3C(C)OC(OC4CC(O)(C(=O)CO)Cc5c(O)c6c(c(O)c54)C(=O)c4c(OC)cccc4C6=O)CC32)cc1 (stereo not shown) [Butyl PABC-Doxaz] | −4.1 ± 0.3 log of the molar concentration | −5.9 ± 0.06 log of the molar concentration | −6.3 ± 0.3 log of molar concentrations | −5.8 ± 0.04 log of the molar concentration | −7.7 ± 0.03 log of the molar concentration | −7.2 ± 0.2 log of the molar concentration | −6.1 ± 0.08 log of the molar concentration | −7.1 ± 0.1 log of molar concentrations | – | – |
| COc1cccc2c1C(=O)c1c(O)c3c(c(O)c1C2=O)C[C@@](O)(C(=O)CO)C[C@@H]3O[C@H]1C[C@H](NCNC(=O)c2ccccc2O)[C@H](O)[C@H](C)O1 [DoxSF, doxsaliform, reference compound] | – | – | – | – | – | – | – | – | – | IC50 (MCF-7; 3 h drug treatment, growth at 5 days, read-out: IC50 MCF-7): 70 to 80 nM; IC50 (MCF-7/Adr; 3 h drug treatment, growth at 5 days, read-out: IC50 MCF-7/Adr): 800 to 2000 nM; IC50 (MDA-MB-435): 50 ± 9 nM; Less active than DoxF in cancer cell growth inhibition (cancer cells [2]): 50 fold |
| CCOC(=O)N1COC2C(C)OC(OC3CC(O)(C(=O)CO)Cc4c(O)c5c(c(O)c43)C(=O)c3c(OC)cccc3C5=O)CC21 (stereo not shown) [Doxaz Ethyl Carbamate] | – | >−5 log of the molar concentration | – | >−6 log of the molar concentration | >−6 log of the molar concentration | – | – | – | – | Growth inhibition IC50, MCF-7, 3 h (MCF-7; [5]): >−6 log of the molar concentration; IC50 (MCF-7; 24 h drug treatment, crystal violet, read-out: Growth inhibition IC50, MCF-7, 24 h): > 1000 nM; Growth inhibition IC50, MCF-7/Adr, 3 h (MCF-7/Adr; [5]): −5.3 ± 0.04 log of the molar concentration; Growth inhibition IC50, SK-HEP-1, 3 h (SK-HEP-1; 3 h drug treatment): >−6 log of the molar concentration; Growth inhibition IC50, Hep G2, 3 h (Hep G2; 3 h drug treatment): >−6 log of the molar concentration; Growth inhibition IC50, H9c2(2-1), 3 h ([1]; 3 h drug treatment, MTT): −5.8 ± 0.2 log of the molar concentration |
| COc1cccc2c1C(=O)c1c(O)c3c(c(O)c1C2=O)C[C@@](O)(C(=O)CO)C[C@@H]3O[C@H]1C[C@H]2[C@@H](OCN2C(=O)OCc2ccc(NC(=O)OCc3ccc(NC(=O)[C@H](CCCCN)NC(=O)[C@H](Cc4ccccc4)NC(=O)[C@@H](C)N)cc3)cc2)[C@H](C)O1 [Formula V] | – | – | – | – | – | – | – | – | 100 | IC50 (MCF-7; Homo sapiens, MCF7, 3 h, read-out: IC50 MCF-7 + plasmin): 9 nM; IC50 (MCF-7; Homo sapiens, MCF7, read-out: IC50 MCF-7): 60 nM; IC50 (MCF-7/Adr; Homo sapiens, NCI/ADR-RES, 3 h, read-out: IC50 MCF-7/Adr + plasmin): 10 nM; IC50 (cancer cells [3]): 5 nM; Time until nearly all of the prodrug was converted to Doxaz (human plasmin; 15 μg/ml human plasmin): ≤ 23 min; Prodrug converted to Doxaz (human plasmin; 4 min after addition of 15 μg/ml human plasmin): 20%; Water solubility (Water solubility): excellent water solubility |
| COc1cccc2c1C(=O)c1c(O)c3c(c(O)c1C2=O)C[C@@](O)(C(=O)CO)C[C@@H]3O[C@H]1C[C@H](N)[C@@H](O)[C@H](C)O1 [Epi, Epidoxorubicin, reference compound] | – | – | – | – | – | – | – | – | > 10000 | IC50 (MCF-7; Homo sapiens, MCF7, read-out: IC50 MCF-7, 3 h drug treatment, growth at 5 days): 200 nM; IC50 (DU-145; Homo sapiens, DU-145, read-out: IC50 DU-145): 380 ± 52 nM |
